Tests used:
Type in all cases: cell-based, human
[1] = tested on: IL-8 production; test: P. acnes-induced IL-8 production in HaCaT keratinocytes (ELISA); details: for reduction of IL-8 production, 24 h pre-treatment / effect on IL-8 production (time course, FIG. 4A) / effect on IL-8 production at 12.5 μM, in words / reduction of IL-8 production, 1 and 6 h pre-treatment / decrease of IL-8 production, 48 h pre-treatment: HaCaT; for reduction of IL-8 production, 24 h pre-treatment: 6.25 μM; for reduction of IL-8 production, 24 h pre-treatment / reduction of IL-8 production, 1 and 6 h pre-treatment / decrease of IL-8 production, 48 h pre-treatment: P. acnes 18 h; for effect on IL-8 production (time course, FIG. 4A): 10 μM, P. acnes 15-180 min; for reduction of IL-8 production, 24 h pre-treatment / effect on IL-8 production (time course, FIG. 4A): 24 h pre-treatment; for effect on IL-8 production at 12.5 μM, in words: 24 h pre-treatment (FIG. 8B); for reduction of IL-8 production, 1 and 6 h pre-treatment: 0.39 to 12.5 μM; for IC50: Homo sapiens, HaCaT cells pre-treated 24 h, then stimulated with P. acnes, read-out: IC50 of inhibition of IL-8 production
Protocol: Bacterial strain and conditions of growth. P. acnes strain 6919 was obtained from the American Type Culture Collection (Manassas, Va.) and P. acnes strains RON and PIE were isolated from patient with joint infection. All strains were grown under anaerobic conditions in reinforced clostridial liquid and solid medium (RCM) (Difco Laboratories, Detroit, Mich.). P. acnes was transferred from the bacterial stock onto RCM agar plate and incubated for 5 days under anaerobic condition by using a GasPak™ EZ Anaerobic Container System (Becton Dickinson & Co, Sparks Md., USA). A single colony was transferred into 100 ml RCM and grown as described above. Bacterial suspension was then store frozen at −80° C. in presence of 10% glycerol final. This stock was called «start stock» and used for all the experiments. For routine culture, 100 ml of RCM was used and bacteria were harvested after 5 days at 37° C. by centrifugation at 7,000×g for 10 min at 4° C. Pellets were pooled and washed in about 30 ml of cold sterile PBS [1.5 mM KH2PO4, 2.7 mM Na2HPO4.7H2O, 0.15 M NaCl (pH 7.4)] and centrifuged again as described above. Finally, the bacterial pellet was suspended in sterile PBS (1:10 from volume culture).
Cell culture, pretreatment and stimulation. The immortalized human keratinocyte cell line HaCaT, fibroblast MRC5 were grown in Dulbecco's modified Eagle's medium-Glutamax-I (DMEM) with 1 mM sodium pyruvate. The immortalized human monocytic cell line ThP1 was grown in Roswell Park Memorial Institute 1640 Medium-Glutamax-I (RPMI). DMEM and RPMI were supplemented with 0.1% and 10% heat-inactivated fetal calf serum (Invitrogen), and an antibiotic/antimycotic solution (10 U/ml Pencillin, 10 μg/ml Streptomycin, 0.25 μg/ml Amphoterin) at 37° C. in humidified atmosphere containing 5% CO2 as described (Life Technologie). Primary human keratinocytes (NHDK) and fibroblast (HDF) were grown in the KGM-Gold and in FGM-2 Bullet Kit, respectively, as described by the manufacturer (Lonza). The immortalized cell lines were routinely tested to assess the absence of Mycoplasma infection. Cells, cultivated in 6- or 96-well polystyrene plates, were pretreated with appropriate molecule solution for 1 to 48 h at 37° C. in the dark at the appropriate concentration. Then, for stimulation, cells were incubated for 15 min to 24 h with the P. acnes suspension adjusted at the appropriate concentration at 37° C. in 5% CO2. For experiences using an in vitro model of psoriasis, the primary human keratinocytes (NHDK) were grown in culture medium for 24 hours. The medium was removed and replaced with culture medium containing meclozine, diclazuril and JAK inhibitor (used as positive control) at the concentrations of 0.39, 0.78, 1.56, 3.12, 6.25 and 12.5 μM and the pro-inflammatory mixture M5 (combination of IL-17A, OSM, TNF-α, IL-22, IL-1α at 10 ng/ml) was added to the cells followed by an incubation for 48 or 72 hours.
ELISA. Human IL-1β, IL-8, hBD-2 and TNF-α protein concentration were measured in the supernatants of stimulated cells using various ELISA Sets (all from Ready-Set-Go from eBioscience, except hBD-2 measurements: Human DEFB4A/BD-2 ELISA Kit from LSBio) according to the manufacturer's instructions. We used serial dilutions of recombinant human IL-1β, IL-8, hBD-2 and TNF-α for standard curve. The optical density was determined at 450 nm at a wavelength correction of 540 nm.
Both molecules, diclazuril and meclozine, were purchased separately from Sigma and tested independently on immortalized keratinocytes HaCaT cell for their capacity to inhibit the IL-8 production in a dose-dependent manner. HaCaT cells were pre-treated with diclazuril and meclozine, at the concentrations ranging from 0.39 to 50 μM, for 24 h and then stimulated with P. acnes suspension as described in Materials and Methods. The production of IL-8 was measured on culture supernatant by ELISA and the viability of cells was estimated by MTT assay (FIG. 1).

[2] = tested on: p38; test: Western blot of p-p38/p38 in P. acnes-stimulated HaCaT cells; details: 25 μM, 24 h pre-treatment
Protocol: (§1) Western Blot analysis. Whole cell protein extracts (25 μg) were separated by electrophoresis (LDS-PAGE) under denaturing conditions with NuPAGE Novex 4-12% Bis-Tris gel (1 mm, 12 wells, Invitrogen, UK) and proteins were transferred onto nitrocellulose membranes and saturated in 20 ml of saturation buffer consisting of TBS 1× (Tris Buffered Saline) containing 200 mM Tris, 1.4 M NaCl (pH 7.6), 5% no fat milk, 0.1% Tween 20 for 1 h. […] After washing to remove unbound antibodies, bound primary antibodies were detected by incubation for 1 h using secondary antibody against rabbit- and mouse IgG (Santa Cruz Biotechnology, SC-2357, 1:5000 and SC-2005, 1:5000, respectively). Unbound material was removed by washing and peroxidase activity was detected in a chemiluminescence assay (WesternBright ECL, Advansta, Menlo Park, USA). […]

[3] = tested on: PKC; test: Western blot of p-PKC/PKC in P. acnes-stimulated HaCaT cells; details: 25 μM, 24 h pre-treatment
Protocol: as §1

[4] = tested on: mTOR; test: Western blot of p-mTOR/mTOR in P. acnes-stimulated HaCaT cells; details: 25 μM, 24 h pre-treatment
Protocol: as §1

Structure (SMILES) | reduction of IL-8 production, 24 h pre-treatment [1] | effect on IL-8 production (time course, FIG. 4A) [1] | effect on IL-8 production at 12.5 μM, in words [1] | reduction of IL-8 production, 1 and 6 h pre-treatment [1] | decrease of IL-8 production, 48 h pre-treatment [1] | IC50 [1] | phosphorylation of p38 induced by P. acnes [2] | phosphorylation of PKC induced by P. acnes [3] | phosphorylation of mTOR induced by P. acnes [4]
N#CC(c1ccc(Cl)cc1)c1c(Cl)cc(-n2ncc(=O)[nH]c2=O)cc1Cl (stereo not drawn) [diclazuril, Diclazuril] | 36% | inhibit | strong effect | did not reduce significantly | 65% | ~6 µM | prevented the phosphorylation | prevented the phosphorylation | did not cause any changed
Cc1cccc(CN2CCN(C(c3ccccc3)c3ccc(Cl)cc3)CC2)c1 (stereo not drawn) [meclozine, Meclozine] | 63% | inhibit | strong effect | did not reduce significantly | 78% | ~3 µM | prevented the phosphorylation | prevented the phosphorylation | did not cause any changed

— patent publication US11617748B2, “Meclozine derivatives and diclazuril derivatives for use in the prevention and/or the treatment of disorders associated to the inflammation induced by P. acnes” (priority 2016, dated 2023)
